The term EC50 denotes the concentration giving half of the maximal effect.

Test [1] in a line: Inhibition of NS5A in Hepatitis C virus subtype 1b replicon infected in human HuH7 cells assessed as reduction in viral replication. A general note: A replicon is a self-replicating genome or part of one, used to study replication in cells.
Test [2] is described as follows: Inhibition of NS5A in Hepatitis C virus subtype 1a replicon infected in human HuH7 cells assessed as reduction in viral replication.
The nature of test [3]: Inhibition of NS5A in Hepatitis C virus subtype 2a replicon infected in human HuH7 cells assessed as reduction in viral replication.

For `CCCC(=O)Nc1ccc(-c2ccc(-c3c[nH]c([C@@H]4CCCN4C(=O)[C@H](NC(=O)N4CCC[C@@H](NC(=O)OCc5ccccc5)C4)c4ccccc4)n3)cc2)cc1`, the half-maximal effective concentration (EC50) in test [1] came out at 0.023 nM; in test [2], 100 nM.

Consider `COC1CCC(C(=O)Nc2ccc(-c3ccc(-c4c[nH]c([C@@H]5CCCN5C(=O)[C@H](NC(=O)CCCNC(=O)OCc5ccccc5)c5ccccc5)n4)cc3)cc2)CC1` (stereo partly drawn), for which the EC50 is 0.0049 nM in test [1] and 8.1 nM in test [2]. `CCCC(=O)Nc1ccc(-c2ccc(-c3c[nH]c([C@@H]4CCCN4C(=O)[C@H](NC(=O)CCCc4ccccc4)c4ccccc4)n3)cc2)cc1`: in test [2], the 50% effective concentration (EC50) was 1300 nM.

Turning to `CCCC(=O)Nc1ccc(-c2ccc(-c3c[nH]c([C@@H]4CCCN4C(=O)[C@H](NC(=O)N4CC[C@@H](NC(=O)OC)C4)c4ccccc4)n3)cc2)cc1`, the EC50 stood at 0.043 nM in test [1] and 353 nM in test [2]. The like results for `CCCC(=O)Nc1ccc(-c2ccc(-c3c[nH]c([C@@H]4CCCN4C(=O)[C@H](NC(=O)N4CC[C@@H](NC(=O)OCc5ccccc5)C4)c4ccccc4)n3)cc2)cc1` were, in that order, 0.0048 nM and 1.1 nM.

Consider `COC1CCN(C(=O)Nc2ccc(-c3ccc(-c4c[nH]c([C@@H]5CCCN5C(=O)[C@H](NC(=O)N5CC[C@@H](NC(=O)OCc6ccccc6)C5)c5ccccc5)n4)cc3)cc2)CC1`, for which the results for the 50% effective concentration (EC50) in test [1], in test [2] and in test [3] were 0.028 nM, 0.039 nM and 0.018 nM, respectively.

Consider `COC(=O)N[C@@H](C(=O)N1CCC[C@H]1c1nc(-c2ccc(-c3ccccc3)cc2)c[nH]1)c1ccccc1`, for which the EC50 worked out at 57 nM in test [1] and 2800 nM in test [2]. For `CCCC(=O)Nc1ccc(-c2ccc(-c3c[nH]c([C@@H]4CCCN4C(=O)[C@H](NC(=O)c4ccccc4)c4ccccc4)n3)cc2)cc1`, the EC50 in test [2] stood at 2400 nM. As for `CCCC(=O)Nc1ccc(-c2ccc(-c3c[nH]c([C@@H]4CCCN4C(=O)[C@H](NC(=O)c4ccc(NC(=O)OCc5ccccc5)cc4)c4ccccc4)n3)cc2)cc1`, the EC50 in test [2] turned out to be 131 nM. On to `COC(=O)N[C@@H](C(=O)N1CCC[C@H]1c1ncc[nH]1)c1ccccc1`, for which the 50% effective concentration (EC50) in test [1] and in test [2] was above 10000 nM throughout. For the molecule `CCCC(=O)Nc1ccc(-c2ccc(-c3c[nH]c([C@@H]4CCCN4C(=O)[C@H](NC(=O)OC)c4ccccc4)n3)cc2)cc1`, the figures for the 50% effective concentration (EC50) in test [1] and in test [2] were 0.34 nM and 2800 nM, respectively.

Turning to `COCc1ccc(C(=O)Nc2ccc(-c3ccc(-c4c[nH]c([C@@H]5CCCN5C(=O)[C@H](NC(=O)CCCNC(=O)OCc5ccccc5)c5ccccc5)n4)cc3)cc2)cc1`, the EC50 is 0.0042 nM in test [1] and 3.5 nM in test [2].

Turning to `CCCC(=O)Nc1ccc(-c2ccc(-c3c[nH]c([C@@H]4CCCN4C(=O)[C@H](NC(=O)c4cccc(NC(=O)OCc5ccccc5)c4)c4ccccc4)n3)cc2)cc1`, the figures for the concentration for a half-maximal effect (EC50) in test [1] and in test [2] were 0.076 nM and 44 nM, respectively. With `CCCC(=O)Nc1ccc(-c2ccc(-c3c[nH]c([C@@H]4CCCN4C(=O)[C@H](NC(=O)c4ccccc4NC(=O)OCc4ccccc4)c4ccccc4)n3)cc2)cc1`, the half-maximal effective concentration (EC50) in test [2] stood at 614 nM. In the case of `COC1CCN(C(=O)Nc2ccc(-c3ccc(-c4c[nH]c([C@@H]5CCCN5C(=O)[C@H](NC(=O)CCCNC(=O)OCc5ccccc5)c5ccccc5)n4)cc3)cc2)CC1`, the EC50 was found to be 0.02 nM in test [1] and 2.3 nM in test [2]. The like results for `CCCC(=O)Nc1ccc(-c2ccc(-c3c[nH]c([C@@H]4CCCN4C(=O)[C@H](NC(=O)CCCNC(=O)OCc4ccccc4)c4ccccc4)n3)cc2)cc1` were, in that order, 0.15 nM and 56 nM. As to `CCCC(=O)Nc1ccc(-c2ccc(-c3c[nH]c([C@@H]4CCCN4C(=O)[C@H](NC(=O)N4CC[C@H](NC(=O)OCc5ccccc5)C4)c4ccccc4)n3)cc2)cc1`, the results for the EC50 in test [1] and in test [2] were 0.037 nM and 82 nM, respectively. The like results for `O=C(CCCNC(=O)OCc1ccccc1)N[C@@H](C(=O)N1CCC[C@H]1c1nc(-c2ccc(-c3ccc(NC(=O)c4ccccc4)cc3)cc2)c[nH]1)c1ccccc1` were, in that order, 0.025 nM and 34 nM.

On to `COC(=O)N[C@@H](C(=O)N1CCC[C@H]1c1ncc(-c2ccc(-c3ccc(-c4cnc([C@@H]5CCCN5C(=O)[C@H](NC(=O)OC)c5ccccc5)[nH]4)cc3)cc2)[nH]1)c1ccccc1`, for which the EC50 worked out at 0.014 nM in test [1] and 0.098 nM in test [2]. For the molecule `CCCC(=O)Nc1ccc(-c2ccc(-c3c[nH]c([C@@H]4CCCN4C(=O)[C@H](NC(=O)N4CCC[C@H](NC(=O)OCc5ccccc5)C4)c4ccccc4)n3)cc2)cc1`, the EC50 in test [2] worked out at 247 nM.

For the molecule `CCCC(=O)Nc1ccc(-c2ccc(-c3c[nH]c([C@@H]4CCCN4C(=O)[C@H](NC(=O)CCCCCCc4ccccc4)c4ccccc4)n3)cc2)cc1`, the EC50 in test [2] worked out at 642 nM.

On to `CCCC(=O)Nc1ccc(-c2ccc(-c3c[nH]c([C@@H]4CCCN4C(=O)[C@H](NC(=O)N4CCCC4)c4ccccc4)n3)cc2)cc1`, for which, in test [2], the EC50 amounted to 353 nM.
